The target of experiment [1] is T1, Human immunodeficiency virus type 1 reverse transcriptase (Human immunodeficiency virus 1, UniProt Q72547). Kind of experiment: Binding affinity to HIV1 reverse transcriptase by surface plasmon resonance based biosensor assay. In general terms: SPR reads the build-up and loss of mass on a sensor chip optically.
In experiment [2] the target is T1, Human immunodeficiency virus type 1 reverse transcriptase. Kind of experiment: Inhibition of HIV1 reverse transcriptase.

A word on the Kd: it is the constant that tells how readily two partners part at equilibrium. Low readings indicate tighter binding, high ones weaker binding. In experiment [1], `NC(=S)NCCc1ccccc1` displayed a Kd of 700 µM.
`O=C(CSc1nncn1-c1ccccc1)Nc1ccccc1` showed a Kd in experiment [1] of 1700 µM.
The same measure, in the same setting: under `NS(=O)(=O)c1ccc(NC(=O)COc2ccc(Cl)cc2)cc1` stands 30 µM; under `NS(=O)(=O)c1ccc(NC(=O)CSc2nc[nH]n2)cc1`, 1600 µM.
Same read-out and setting: the value for `CC(=O)c1ccccc1OCC(=O)Nc1ccccc1C` was 800 µM; that for `Cc1ccccc1OCC(=O)Nc1ccc(S(N)(=O)=O)cc1` was 1100 µM; that for `Cc1ccc(-n2cnnc2SCC(=O)Nc2ccccc2)cc1` was 800 µM.
The same measure, in the same setting: under `NS(=O)(=O)c1ccc(NC(=O)CSc2nncn2-c2ccccc2)cc1` stands 1300 µM.
Broadly, the IC50 is the point on the concentration scale where inhibition reaches its midpoint. Low readings indicate inhibition by little substance, high ones a need for much substance. `Cc1cc(S(N)(=O)=O)ccc1NC(=O)COc1ccc(Cl)cc1C(=O)c1cc(F)cc(C(F)(F)F)c1` registered a half-inhibitory concentration (IC50) in experiment [2] of 1.4 nM.
Take `S=C(NCCc1ccccc1)Nc1ccccn1`: the Kd in experiment [1] worked out at 6 µM.
Take `S=C(NCCc1ccccc1)Nc1ccc(Br)cn1`: the Kd in experiment [1] came to 2 µM.

The record behind these values is ChEMBL document CHEMBL1671811, “Deconstruction of non-nucleoside reverse transcriptase inhibitors of human immunodeficiency virus type 1 for exploration of the optimization landscape of fragments” (J Med Chem, 2011).
